Measured values as given in patent US7271165B2, “Rifamycin analogs and uses thereof” (priority 2003, dated 2007).
≈ marks a conversion by molar mass, not a printed value. Read-outs that look alike come from different tables or passages of the source.

Experiments:
S. aureus = assay: MIC assay, S. aureus; type: cell-based, Staphylococcus aureus
S. pneumo. = assay: MIC assay, S. pneumo.; type: cell-based, Streptococcus pneumoniae
E. faecalis = assay: MIC assay, E. faecalis; type: cell-based, Enterococcus faecalis
H. flu = type: cell-based, H. influenza
E coli = assay: MIC assay, E coli; type: cell-based

SMILES | melting point [°C] | MIC (μg/mL) S. aureus (S. aureus) [µg/mL] | MIC (μg/mL) S. pneumo. (S. pneumo.) [µg/mL] | MIC (μg/mL) E. faecalis (E. faecalis) [µg/mL] | MIC (μg/mL) H. flu (H. flu; H. flu) [µg/mL] | MIC (μg/mL) E coli (E coli) [µg/mL] | MIC (μg/mL) H. flu (H. flu) [µg/mL]
CO[C@H]1/C=C/OC2(C)Oc3c(C)c(O)c4c(=O)c(c5oc6cc(N7CC8CC7CN8)cc(O)c6nc-5c4c3C2=O)NC(=O)/C(C)=C\C=C\[C@H](C)[C@H](O)[C@@H](C)[C@@H](O)[C@@H](C)[C@H](OC(C)=O)[C@@H]1C (stereo partly shown) | > 330 |  |  |  |  |  | 
CO[C@H]1/C=C/OC2(C)Oc3c(C)c(O)c4c(=O)c(c5oc6cc(N7CC8CCC7CN8)cc(O)c6nc-5c4c3C2=O)NC(=O)/C(C)=C\C=C\[C@H](C)[C@H](O)[C@@H](C)[C@@H](O)[C@@H](C)[C@H](OC(C)=O)[C@@H]1C (stereo partly shown) | > 300 |  |  |  |  |  | 
CCOC(=O)C1CCN(c2cc(O)c3nc4c5c6c7c(C)c(O)c5c(=O)c(c-4oc3c2)NC(=O)/C(C)=C\C=C\[C@H](C)[C@H](O)[C@@H](C)[C@@H](O)[C@@H](C)[C@H](O)[C@H](C)[C@@H](OC)/C=C/O[C@@](C)(O7)C6=O)CC1 [Compound 110] |  | 0.004 (≈ 0.00438 µM) | 0.008 (≈ 0.00875 µM) | 0.5 (≈ 0.547 µM) | 0.12 (≈ 0.131 µM) | >8 | 
COC1C=COC2(C)Oc3c(C)c(O)c4c(=O)c(c5oc6cc(N7CCC(F)CC7)ccc6nc-5c4c3C2=O)NC(=O)C(C)=CC=CC(C)C(O)C(C)C(O)C(C)C(O)C1C (stereo not shown) [Compound 111] |  | 0.03 (≈ 0.0355 µM) | 0.008 (≈ 0.00948 µM) | 0.5 (≈ 0.592 µM) | 0.12 (≈ 0.142 µM) | 8 (≈ 9.48 µM) | 
COC1C=COC2(C)Oc3c(C)c(O)c4c(=O)c(c5oc6cc(N7CCC(F)(F)CC7)ccc6nc-5c4c3C2=O)NC(=O)C(C)=CC=CC(C)C(O)C(C)C(O)C(C)C(O)C1C (stereo not shown) [Compound 112] |  | 0.03 (≈ 0.0348 µM) | 0.015 (≈ 0.0174 µM) | 1 (≈ 1.16 µM) | 0.25 (≈ 0.29 µM) | >8 | 
COC1C=COC2(C)Oc3c(C)c(O)c4c(=O)c(c5oc6cc(N7CC(C)OC(C)C7)cc(O)c6nc-5c4c3C2=O)NC(=O)C(C)=CC=CC(C)C(O)C(C)C(O)C(C)C(O)C1C (stereo not shown) [Compound 114] |  | 0.015 (≈ 0.0172 µM) | 0.002 (≈ 0.00229 µM) | 0.25 (≈ 0.287 µM) | 0.25 (≈ 0.287 µM) | 8 (≈ 9.17 µM) | 
COC1C=COC2(C)Oc3c(C)c(O)c4c(=O)c(c5oc6cc(N7CCCC7)c(C7CCCCC7)cc6nc-5c4c3C2=O)NC(=O)C(C)=CC=CC(C)C(O)C(C)C(O)C(C)C(O)C1C (stereo not shown) [Compound 115] |  | 2 (≈ 2.24 µM) | 0.25 (≈ 0.28 µM) | >8 | 8 (≈ 8.95 µM) | >8 | 
COC1C=COC2(C)Oc3c(C)c(O)c4c(=O)c(c5oc6cc(N7CCCC7)c(C)c(C)c6nc-5c4c3C2=O)NC(=O)C(C)=CC=CC(C)C(O)C(C)C(O)C(C)C(O)C1C (stereo not shown) [Compound 117] |  | 0.5 (≈ 0.595 µM) | 0.06 (≈ 0.0714 µM) | 4 (≈ 4.76 µM) | 1 (≈ 1.19 µM) | >8 | 
COc1c(N2CCCC2)cc(C)c2nc3c4c5c6c(C)c(O)c4c(=O)c(c-3oc12)NC(=O)C(C)=CC=CC(C)C(O)C(C)C(O)C(C)C(O)C(C)C(OC)C=COC(C)(O6)C5=O (stereo not shown) [Compound 118] |  | 0.06 (≈ 0.0701 µM) | 0.03 (≈ 0.035 µM) | 2 (≈ 2.34 µM) | 0.12 (≈ 0.14 µM) | 8 (≈ 9.35 µM) | 
COC1C=COC2(C)Oc3c(C)c(O)c4c(=O)c(c5oc6cc(N7CCC(F)C7)ccc6nc-5c4c3C2=O)NC(=O)C(C)=CC=CC(C)C(O)C(C)C(O)C(C)C(O)C1C (stereo not shown) [Compound 119] |  | 0.03 (≈ 0.0361 µM) | 0.015 (≈ 0.0181 µM) | 0.5 (≈ 0.602 µM) | 0.06 (≈ 0.0723 µM) | 4 (≈ 4.82 µM) | 
COC1C=COC2(C)Oc3c(C)c(O)c4c(=O)c(c5oc6cc(N7CCCC7)c(F)cc6nc-5c4c3C2=O)NC(=O)C(C)=CC=CC(C)C(O)C(C)C(O)C(C)C(O)C1C (stereo not shown) [Compound 120] |  | 0.03 (≈ 0.0361 µM) | 0.06 (≈ 0.0723 µM) | 1 (≈ 1.2 µM) | 0.12 (≈ 0.145 µM) | 8 (≈ 9.64 µM) | 
COC1C=COC2(C)Oc3c(C)c(O)c4c(=O)c(c5oc6cc(N7CCCN(C)CC7)cc(O)c6nc-5c4c3C2=O)NC(=O)C(C)=CC=CC(C)C(O)C(C)C(O)C(C)C(O)C1C (stereo not shown) [Compound 121] |  | 0.004 (≈ 0.00459 µM) | 0.00012 (≈ 0.000138 µM) | 0.03 (≈ 0.0344 µM) | 0.25 (≈ 0.287 µM) | 4 (≈ 4.59 µM) | 
COC1C=COC2(C)Oc3c(C)c(O)c4c(=O)c(c5sc6cc(N7CCCN(C)CC7)ccc6nc-5c4c3C2=O)NC(=O)C(C)=CC=CC(C)C(O)C(C)C(O)C(C)C(O)C1C (stereo not shown) [Compound 122] |  | 0.002 (≈ 0.0023 µM) | 0.00025 (≈ 0.000287 µM) | 0.25 (≈ 0.287 µM) | 0.12 (≈ 0.138 µM) | 2 (≈ 2.3 µM) | 
COC1C=COC2(C)Oc3c(C)c(O)c4c(=O)c(c5oc6cc(N(C)CC(C)C)cc(O)c6nc-5c4c3C2=O)NC(=O)C(C)=CC=CC(C)C(O)C(C)C(O)C(C)C(O)C1C (stereo not shown) [Compound 125] |  | 0.015 (≈ 0.0178 µM) | 0.002 (≈ 0.00237 µM) | 0.5 (≈ 0.592 µM) | 0.5 (≈ 0.592 µM) | >8 | 
COC1C=COC2(C)Oc3c(C)c(O)c4c(=O)c(c5oc6cc(N(C)C7CCN(C)CC7)cc(O)c6nc-5c4c3C2=O)NC(=O)C(C)=CC=CC(C)C(O)C(C)C(O)C(C)C(O)C1C (stereo not shown) [Compound 126] |  | 0.004 (≈ 0.00452 µM) | 0.00025 (≈ 0.000282 µM) | 0.5 (≈ 0.565 µM) | 0.25 (≈ 0.282 µM) | 4 (≈ 4.52 µM) | 
COC1C=COC2(C)Oc3c(C)c(O)c4c(=O)c(c5oc6cc(N(C)CCC#N)ccc6nc-5c4c3C2=O)NC(=O)C(C)=CC=CC(C)C(O)C(C)C(O)C(C)C(O)C1C (stereo not shown) [Compound 127] |  | 0.06 (≈ 0.0727 µM) | 0.008 (≈ 0.0097 µM) | 0.5 (≈ 0.606 µM) | 0.12 (≈ 0.145 µM) | 8 (≈ 9.7 µM) | 
COC1C=COC2(C)Oc3c(C)c(O)c4c(=O)c(c5oc6cc(N7CCOCC7)cc(O)c6nc-5c4c3C2=O)NC(=O)C(C)=CC=CC(C)C(O)C(C)C(O)C(C)C(O)C1C (stereo not shown) [Compound 128] |  | 0.004 (≈ 0.00474 µM) | 0.00025 (≈ 0.000296 µM) | 0.06 (≈ 0.0711 µM) |  | >8 | 0.12 (≈ 0.142 µM)
COC1C=COC2(C)Oc3c(C)c(O)c4c(=O)c(c5sc6cc(N7CCOCC7)ccc6nc-5c4c3C2=O)NC(=O)C(C)=CC=CC(C)C(O)C(C)C(O)C(C)C(O)C1C (stereo not shown) [Compound 129] |  | 0.015 (≈ 0.0178 µM) | 0.001 (≈ 0.00118 µM) | 0.5 (≈ 0.592 µM) |  | 4 (≈ 4.74 µM) | 0.06 (≈ 0.0711 µM)
CO[C@H]1/C=C/O[C@@]2(C)Oc3c(C)c(O)c4c(=O)c(c5n(C)c6ccccc6nc-5c4c3C2=O)NC(=O)/C(C)=C\C=C\[C@H](C)[C@H](O)[C@@H](C)[C@@H](O)[C@@H](C)[C@H](O)[C@@H]1C [Compound 131] |  | 0.5 (≈ 0.661 µM) | 0.5 (≈ 0.661 µM) | 2 (≈ 2.65 µM) |  | 8 (≈ 10.6 µM) | 2 (≈ 2.65 µM)
C=CCc1cc(C)cc2nc3c4c5c6c(C)c(O)c4c(=O)c(c-3oc12)NC(=O)C(C)=CC=CC(C)C(O)C(C)C(O)C(C)C(O)C(C)C(OC)C=COC(C)(O6)C5=O (stereo not shown) [Compound 132] |  | 0.06 (≈ 0.0753 µM) | 0.03 (≈ 0.0376 µM) | 2 (≈ 2.51 µM) |  | >8 | 0.5 (≈ 0.627 µM)
CO[C@H]1/C=C/O[C@@]2(C)Oc3c(C)c(O)c4c(=O)c(c5oc6cccc(O)c6nc-5c4c3C2=O)NC(=O)/C(C)=C\C=C\[C@H](C)[C@H](O)[C@@H](C)[C@@H](O)[C@@H](C)[C@H](O)[C@@H]1C [Compound 133] |  | 0.004 (≈ 0.00527 µM) | 0.002 (≈ 0.00264 µM) | 0.12 (≈ 0.158 µM) |  | 8 (≈ 10.5 µM) | 0.25 (≈ 0.329 µM)
